# Legend:
# corneal neovasculization = test: Corneal neovasculization model (NaOH alkali burn of the cornea), neovasculization index; type: in vivo; conditions: rabbit, during 35 days of evaluation, single iv dose
# Method: After anaesthetizing a Newzealender breed white rabbit of 3 kg. with a midazolam and ketamine hydrochloride with an intramuscular injection, installation of topical proparacaine was performed (Anestalcon, Alcon, Argentina) in the eye and a blepharostat was place on the right eye. During 20 seconds 7 mm diameter dicks of Whatman filter paper were soaked in a 1N NaOH solution. The paper disk was placed on the central part of the cornea with a pincer leaving it there for 2 minutes. Immediately afterwards the injured zone was washed with 15 ml saline physiological solution (CINa, 0.9%) during one minute. The same process was performed on 12 rabbits of the same color, breed and weight.
# Formation of neovessels were quantified with a value of 0 to 4 to each quadrant according to the centripetal growth of the longest vessel (in 1 mm increases i.e, 0=0 mm; 1=equal or less than 1 mm; 2=more than 1 and up to 2 mm; 3=more than 2 and up to 3 mm; 4=more than 3 mm). The sum of the four quadrants provided the neovasculization index (INV) for that eye.
# 24 hs after the lesion was caused the first clinical examination was performed and was then continued every three days. This was carried out using an operator microscope or a surgical magnifying glass and photographs were taken with a digital camera Nikon Coolpix 5700. The INV register was performed on days 9, 15, 21 and 35 on all the animals. […]
# [1] = tested on: CT26 cells (colon adenocarcinoma); test: Oncological angiogenesis model, subcutaneous CT26 tumors; type: in vivo, Balb/c rats; conditions: day 31; single iv dose on day 7: Suramine 20 mg/Kg, Bevacizumab 5 mg/Kg, suramab = Suramine 20 mg/Kg + Bevacizumab 5 mg/Kg
# Method: 5×10^5 CT26 cells (colon adenocarcinoma) were inoculated subcutaneously, in the dorsal-lateral region of Balb/c rats. On the 7th day of inoculation 4 groups of animals were formed that received different treatments via iv (in the tail vein).
# • a. […] Control group: (n=7) PS 100 μl under slow infusion.
# The tumors were measured three times per week. The following formula was used to calculate the tumor volume: […]. The animals having tumors volumes greater or equal to 8000 mm3 were sacrificed.
# Survival was considered till day 35 post tumor inoculation.
Compound,effect on corneal neovasculization (in words) (corneal neovasculization),tumor volume compared to the control group (in words) [1]
Cc1ccc(C(=O)Nc2ccc(S(=O)(=O)O)c3cc(S(=O)(=O)O)cc(S(=O)(=O)O)c23)cc1NC(=O)c1cccc(NC(=O)Nc2cccc(C(=O)Nc3cc(C(=O)Nc4ccc(S(=O)(=O)O)c5cc(S(=O)(=O)O)cc(S(=O)(=O)O)c45)ccc3C)c2)c1 [Suramine],inhibiting effect on neovasculization,reduction of tumor volume compared to the control group
"Bevacizumab: monoclonal antibody, humanized and recombinant, that binds to VEGF-A",inhibiting effect on neovasculization,reduction of tumor volume compared to the control group

# Reference: patent US9023350B2, “Synergistic pharmaceutical composition useful for inhibiting corneal and retinal neovascularization (angiogenesis), and in other organs, in a human being or animals” (Association Civil de Estudios Superiores, priority 2007, dated 2015)
